This is an account of results in patent US20070238098A1, “Method and Kit for Predicting Adverse Side Effects of Paclitaxel Therapy” (priority 2003, published 2007).

In the data set the test system is breast cancer patients. As to the kind of experiment: clinical study of paclitaxel preoperative chemotherapy: adverse side effects graded by NCI-CTC. The note with it: 54 breast cancer patients, stage II or IIIa; 80 mg/m paclitaxel by intravenous infusion over 1 hour, once a week for 12 weeks. Type of data set: in vivo, human. On the procedure:
54 breast cancer patients were registered in a clinical study of paclitaxel preoperative chemotherapy. The following summarizes the criteria for patient selection. 1) Breast cancer patients age 70 or younger in stage II or IIIa as indicated by histopathological testing; and, 2) suitable physiological function (WBC >4,000 mm^3, platelet count […], hemoglobin level >10 g/dl, serum creatinine concentration <1.2 mg/dl, serum total bilirubin level <1.5 mg/dl, GOT/GPT <60/70). Patients who received proceeding chemotherapy or radiation therapy were excluded. Namely, all 54 patients who participated in this clinical study of paclitaxel preoperative chemotherapy were nearly at the same stage either clinically or histologically, and had no prior history of chemotherapy. […]
White blood cell count, red blood cell count, hemoglobin level and platelet count were measured weekly for each patient to evaluate the presence or absence of adverse side effects. Adverse side effects observed during the course of therapy were evaluated and graded based on the Common Toxicity Criteria of the US National Cancer Institute (NCI-CTC) (see Trotti, A., et al., Common toxicity criteria: version 2.0—an improved reference for grading the acute effects of cancer treatment: impact on radiotherapy, Int. J. Radiat. Oncol. Biol. Phys., 47: 13-47, 2000). […]

`CC(=O)O[C@H]1C(=O)[C@@]2(C)[C@H]([C@H](OC(=O)c3ccccc3)[C@]3(O)C[C@H](OC(=O)[C@H](O)[C@@H](NC(=O)c4ccccc4)c4ccccc4)C(C)=C1C3(C)C)[C@]1(OC(C)=O)CO[C@@H]1C[C@@H]2O` [paclitaxel]: the “granulocytopenia observed (most frequently observed adverse side effect; NCI-CTC grade 1 to 4)” value is 24 patients.
